Source: patent publication US6916937B2, “Carbohydrate prodrugs of fluorooxindoles” (Bristol-Myers Squibb Company, priority 2003, dated 2005)

Key:
[1] = system: rat traumatic brain injury (TBI) model; conditions: Cheney et al. 2001; cited from earlier work
[2] = system: cloned mammalian (mSlo or hSlo) BK channels; experiment: Increase of BK-mediated outward current in Xenopus oocytes, two-electrode voltage clamp; format: cell-based; conditions: 10 μM; at least 5 oocytes; mSlo or hSlo expressed in Xenopus oocytes
Experimental: (§1) The ability of the compound of Formula II to open BK channels and increase whole-cell outward (K^+) BK-mediated currents was assessed under voltage-clamp conditions by determining their ability to increase cloned mammalian (mSlo or hSlo) BK—mediated outward current heterologously expressed in Xenopus oocytes [Butler, A., et al., Science, 261, pp. 221-224 (1993); and Dworetzky, S. I., et al., Mol. Brain Res., 27, pp.189-193 (1994)]. The two BK constructs employed represent nearly structurally identical homologous proteins, and have proven to be pharmacologically identical in our tests. To isolate BK current from native (background, non-BK) current, the specific and potent BK channel-blocking toxin iberiotoxin (IBTX) [Galvez, A., et al., J. Biol. Chem, 265, pp.11083-11090 (1990)] was employed at a supramaximal concentration (50 nM). The relative contribution of BK channels current to total outward current was determined by subtraction of the current remaining in the presence of IBTX (non-BK current) from the current profiles obtained in all other experimental conditions (control, drug, and wash). […] The compound of Formula II was shown in at least 5 oocytes at a concentration of 10 μM to increase BK current to 170% of control of IBTX-sensitive current. […]

[3] = system: non-BK native currents in the oocytes; experiment: Effect on non-BK native currents in oocytes (current remaining with IBTX); format: cell-based, Xenopus; conditions: at the tested concentration
Experimental: as §1

[4] = system: focal cerebral ischemia (MCAO) in the Wistar rat; experiment: Focal stroke model, permanent MCA and CCA occlusion; format: in vivo; conditions: 0.3 mg/kg i.v. single bolus two hours after MCA occlusion; infarct measured 24 hours after MCAO
Experimental: To determine the ability of the compounds of the present invention to reduce cell loss resulting from neuronal ischemia, a standard focal cerebral ischemia is induced by permanent occlusion of the left middle cerebral artery (MCA) and common carotid artery (CCA) with one hour occlusion of the right CCA in the Wistar rat. The surgeries are performed using the sub-temporal approach of A. Tamura, et al., J. Cereb. Blood Flow Metab., 1, pp. 53-60, (1981) and its modifications [K. Osborne, et al., J. Neurol Neurosurg. Psychiatry, 50, pp. 402-410 (1987) and S. Menzies, et al., Neurosurgery, 31, pp. 100-107, (1992).]
The compound of Formula II was evaluated in the focal stroke model involving permanent occlusion of the left MCA (MCAO) and CCA (CCAO) and temporary occlusion of the right CCA in the Wistar rat [Gribkoff, et al. Nature Med. 7, pp. 471-477 (2001)]. This procedure results in a reliably large neocortical infarct volume that is measured by means of vital dye exclusion in serial slices through the brain 24 hours after MCAO. In the present test, compounds were administered using an i.v. or i.p. route of administration two hours after occlusion.

Structure (SMILES)	Reduction in edema in regions adjacent to the impact zone [1]	BK current, % of control of IBTX-sensitive current [2]	Effect on non-BK native currents in the oocytes [3]	Reduction of cortical infarct volume vs vehicle-treated control [4]
COc1ccc(Cl)cc1[C@]1(F)C(=O)Nc2cc(C(F)(F)F)ccc21 [Compound of Formula (S)-II, (S)-3-(5-chloro-2-methoxy-phenyl)-3-fluoro-6-trifluoromethyl-1,3-dihydro-indol-2-one]	significant reductions in edema	–	–	–
COc1ccc(Cl)cc1C1(F)C(=O)Nc2cc(C(F)(F)F)ccc21 (racemic) [compound of Formula II, 3-(5-chloro-2-methoxyphenyl)-1,3-dihydro-3-fluoro-6-(trifluoromethyl)-2H-indol-2-one]	–	170 % of control	did not effect	about 28%
